Results on eight compounds are retold here after publication PMC11003480, “Promising inhibition of diabetes-related enzymes and antioxidant properties of Ptilostemon casabonae leaves extract” (Journal of Enzyme Inhibition and Medicinal Chemistry, 2023).

Where only a bound is given, the exact number is not on record here.

The nature of assay [1]: ABTS radical scavenging activity. The conditions noted are these: 50% reduction of absorbance at 734 nm after 1 min. Here is the method:
Briefly, the reaction between the reduced ABTS (7 mM) with potassium persulfate (2.45 mM) in an aqueous solution at room temperature for 24 h, was performed to produce free radical ABTS^.+. Then, different concentrations of extract (10 μL) were added to 1 ml of ABTS^.+, and the absorbance at 734 nm was recorded after 1 min. The activity was expressed as the concentration of sample necessary to give a 50% reduction in the original absorbance (EC50).

For assay [2], the target named is Saccharomyces cerevisiae α-glucosidase. The experiment in a line: α-Glucosidase inhibition assay (pNPG substrate). Format: biochemical. The conditions noted are these: for α-Glucosidase Mode of inhibition: Lineweaver-Burk plot; for equilibrium constant for binding with the enzyme-substrate complex (KIS): from intercepts (1/Vmax) versus inhibitor concentration; for equilibrium constant for binding with the free enzyme (KI): from slope (Km/Vmax) versus inhibitor concentration. As to the method:
The concentrations of extract required to give 50% inhibition of enzyme activity (IC50) were determined. […] The Lineweaver-Burk double reciprocal plot was used to determine the mode of α-glucosidase inhibition by performing assays at different concentrations of substrate and extract or compound. Grafit 7 (Erithacus, East Grinstead, UK) was used as data analysis software. α-Glucosidase inhibitory activity was analysed following the method described by Delogu et al.[15]. […] It was first incubated for 15 min at 37 °C. Then, 20 µL of p-nitrophenyl α-D-glucopyranoside solution (pNPG, 5 mM) was added. After further 15 min of incubation at 37 °C, the reaction was stopped by adding 50 μL of 0.2 M sodium carbonate solution. α-Glucosidase activity was determined with a 96-well microplate reader by measuring the absorbance at 405 nm. The mode of inhibition was determined, and the equilibrium constant for binding with the enzyme–substrate complex (KIS) was obtained from the vertical intercepts plotted versus inhibitor concentration.

Assay [3] deals with Saccharomyces cerevisiae α-glucosidase. Set-up: method as in PMID 25805337. The conditions noted are these: cited from earlier work.
A short description of assay [4]: Ferric reducing antioxidant power assay (FRAP). Particulars: ferrous equivalents; 4 min, absorbance 593 nm. As to the method:
Ferric reducing antioxidant power assay (FRAP) was conducted as previously described, with slight modifications. An amount of 10 µL of the extract was mixed with 2 ml of the TPTZ–ferric solution and than incubated for 4 min at room temperature in the dark. The absorbance was read at 593 nm and the result was expressed as ferrous equivalents (FE; mg Fe^2+ equivalents/mL solution). Ascorbic acid was used as reference compound.

As to `Cc1c(C)c2c(c(C)c1O)CCC(C)(C(=O)O)O2` (stereo not shown) [Trolox, 6-hydroxy-2,5,7,8-tetramethylchromane-2-carboxylic acid], the “ABTS EC50” value in assay [1] was found to be 3.4 ± 0.3 µg/mL.

On to `O=c1cc(-c2ccc(O)cc2)oc2cc(O)cc(O)c12` [Apigenin (23), Apigenin], for which, in assay [2], the “α-Glucosidase IC50” value came to 3.88 ± 1.48 µg/mL, the “α-Glucosidase Mode of inhibition” value was “Mixed”, the “equilibrium constant for binding with the enzyme-substrate complex (KIS)” value (“equilibrium constant for binding … (KIS)” for short) stood at 19.6 µg/mL and the “equilibrium constant for binding with the free enzyme (KI)” value is on record as 6.5 µg/mL. Further, the “α-Glucosidase Mode of inhibition” value in assay [2] (listed as apigenin) is recorded as “mixed-type inhibition”.

`C[C@@H]1O[C@@H](OC[C@H]2O[C@@H](Oc3c(-c4ccc(O)c(O)c4)oc4cc(O)cc(O)c4c3=O)[C@H](O)[C@@H](O)[C@@H]2O)[C@H](O)[C@H](O)[C@H]1O` [Rutin (4), Quercetin 3-O-rutinoside (Rutin)]: in assay [2], the “α-Glucosidase IC50” value is recorded as 20.54 ± 4.45 µg/mL, the “α-Glucosidase Mode of inhibition” value is “Mixed”, the “equilibrium constant for binding … (KIS)” value is recorded as 80.2 µg/mL and the “equilibrium constant for binding with the free enzyme (KI)” value is on record as 9.3 µg/mL. Besides, the “α-Glucosidase Mode of inhibition” value in assay [2] (listed as rutin) is reported as “mixed-type inhibition”.

`O=C(/C=C/c1ccc(O)c(O)c1)O[C@@H]1CC(O)(C(=O)O)C[C@@H](OC(=O)/C=C/c2ccc(O)c(O)c2)C1O` (stereo partly shown) [3,5-dicaffeoylquinic acid, 3,5-Dicaffeoylquinic acid]: in assay [3], the “α-glucosidase inhibition (in words)” value was “able to inhibit this enzyme”.

For the compound `O=C(/C=C/c1ccc(O)c(O)c1)O[C@@H]1C[C@](O)(C(=O)O)C[C@@H](O)[C@H]1O` [Chlorogenic acid (1), 5-O-Caffeoylquinic acid (Chlorogenic acid)], in assay [2], the “α-Glucosidase IC50” value is on record as over 100 µg/mL and the “α-glucosidase inhibitory activity (in words)” value is “no inhibitory activity”.

For the compound `O=C1O[C@H]([C@@H](O)CO)C(O)=C1O` [Ascorbic acid], the FRAP in assay [4] is reported as 1.81 ± 0.13 mg FE/mL.

`O=C(/C=C/c1ccc(O)c(O)c1)O[C@@H]1C[C@](OC(=O)/C=C/c2ccc(O)c(O)c2)(C(=O)O)C[C@@H](O)[C@H]1O` [1,5-Dicaffeoylquinic acid (9), 1,5-Dicaffeoylquinic acid]: in assay [2], the “α-Glucosidase IC50” value is listed as 36.64 ± 0.07 µg/mL, the “α-Glucosidase Mode of inhibition” value is reported as “Uncompetitive” and the “equilibrium constant for binding … (KIS)” value was 69.4 µg/mL.

For the compound `O=C(/C=C/c1ccc(O)c(O)c1)O[C@H]1[C@H](O)C[C@](O)(C(=O)O)C[C@H]1OC(=O)/C=C/c1ccc(O)c(O)c1` [4,5-dicaffeoylquinic acid], the “α-glucosidase inhibition (in words)” value in assay [3] is reported as “able to inhibit this enzyme”.
